# Key:
# Escherichia coli = assay: Antibacterial activity against Escherichia coli BW25113 assessed as reduction in bacterial growth measured every 20 mins for 16 hrs by serial broth dilution method; format: functional, organism-based
# Klebsiella pneumoniae = assay: Antibacterial activity against Klebsiella pneumoniae ATCC 10031 assessed as reduction in bacterial growth measured every 20 mins for 16 hrs by serial broth dilution method; format: functional, organism-based
smiles,measurement,setting,value
CNc1cc(F)c(F)c2c1[nH]c1ncc(-c3cc(CN(C)C)c4ncc(C(=O)O)c(=O)n4c3)c(N3CCCC3)c12,IC50,Escherichia coli,663 nM
same,IC50,Klebsiella pneumoniae,< 98 nM
CNc1cc(F)c(F)c2c1[nH]c1ncc(-c3cc(CN4CCOCC4)c4ncc(C(=O)O)c(=O)n4c3)c(N(C)C)c12,IC50,Escherichia coli,523 nM
same,IC50,Klebsiella pneumoniae,< 98 nM
CNc1cc(F)c(Cl)c2c1[nH]c1ncc(-c3ccc4ncc(C(=O)O)c(=O)n4c3)c(N(C)C)c12,IC50,Escherichia coli,458 nM
same,IC50,Klebsiella pneumoniae,< 98 nM
CNc1c(F)c(F)cc2c1[nH]c1ncc(-c3ccc4ncc(C(=O)O)c(=O)n4c3)c(N(C)C)c12,IC50,Escherichia coli,442 nM
same,IC50,Klebsiella pneumoniae,< 98 nM
CNc1cc(F)c(F)c2c1[nH]c1ncc(-c3cc(C)c4ncc(C(=O)O)c(=O)n4c3)c(N(C)C)c12,IC50,Escherichia coli,262 nM
same,IC50,Klebsiella pneumoniae,< 98 nM
CNc1c(F)cc(F)c2c1[nH]c1ncc(-c3ccc4ncc(C(=O)O)c(=O)n4c3)c(N(C)C)c12,IC50,Escherichia coli,497 nM
same,IC50,Klebsiella pneumoniae,< 98 nM

# — ChEMBL document CHEMBL4680365, “Novel Oxopyrido[1,2-a]pyrimidine Compounds for Treating Bacterial Infection” (ACS Med Chem Lett, 2021)
